Reference: US20200113852A1, “METHODS OF PATIENT SELECTION AND TREATING TRXR- OR PRDX-OVEREXPRESSED CANCERS” (TRIACT THERAPEUTICS, INC., priority 2017, published 2020)
Where two headings read alike, the source gives them in different places.

How the values were obtained:
[1] = target: T1, TrxR in HCT116 cells (Homo sapiens, UniProt Q16881); assay: Endogenous TrxR activity in cell lysates (DTNB reduction assay); type: cell-based
T1 sequence (Q16881 1-649): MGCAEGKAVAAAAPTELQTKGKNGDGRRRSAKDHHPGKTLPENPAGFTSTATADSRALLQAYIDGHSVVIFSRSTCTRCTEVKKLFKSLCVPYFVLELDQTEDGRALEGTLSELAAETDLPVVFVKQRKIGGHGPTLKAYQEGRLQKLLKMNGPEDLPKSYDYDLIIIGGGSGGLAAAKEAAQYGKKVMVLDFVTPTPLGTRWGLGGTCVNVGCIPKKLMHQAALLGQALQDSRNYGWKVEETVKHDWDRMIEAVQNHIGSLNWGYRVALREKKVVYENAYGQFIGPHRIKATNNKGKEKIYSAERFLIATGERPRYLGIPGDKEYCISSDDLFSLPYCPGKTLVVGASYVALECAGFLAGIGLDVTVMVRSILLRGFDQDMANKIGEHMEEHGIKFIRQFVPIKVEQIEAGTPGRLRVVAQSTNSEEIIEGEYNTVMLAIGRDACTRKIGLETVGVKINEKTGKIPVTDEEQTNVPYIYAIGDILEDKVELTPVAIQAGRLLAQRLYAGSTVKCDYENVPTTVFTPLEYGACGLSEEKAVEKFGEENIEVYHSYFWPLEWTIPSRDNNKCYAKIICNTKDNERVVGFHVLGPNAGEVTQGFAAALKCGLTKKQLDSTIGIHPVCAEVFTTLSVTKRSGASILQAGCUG

[2] = target: T2, recombinant human GAPDH (Homo sapiens, UniProt P04406); assay: In vitro modification of GAPDH by Iniparib and I-NOBA; type: binding
T2 construct: purchased Acris
Description: For biochemical analysis, recombinant human GAPDH (Acris) was first reduced by a 15,000-fold excess of DTT at 56° C. for 30 min, the reducing agent being removed thereafter by chloroform/methanol precipitation. […] Afterwards the samples were submitted or not to another reducing step with 25 mM DTT (56° C., 30 min), and after removal of DTT by chloroform/methanol precipitation, biotinylation of free cysteine sulfhydryl groups of GAPDH was performed with HPDP-biotin (N-[6-(Biotinamido)hexyl]-3′-(2′-pyridyldithio)propionamide) at […] for 2 h at 20° C.
Sample mixtures were then reduced or not with 25 mM DTT (56° C., 30 min). Intact molecular weights were measured by mass spectrometry. Liquid chromatography-electrospray ionization mass spectrometry (LC/MS) was carried out using LTQ-Orbitrap Elite mass spectrometer (Thermo Fisher Scientific) coupled to a Famos Autosampler and an Ultimate Pump (LC-Packing, Dionex). Reverse phase chromatography was performed with a binary buffer system consisting of 0.2% formic acid (buffer A) and 80% acetonitrile in 0.2% formic acid (buffer B). After dilution to 1 pmole/μl in 0.2% formic acid, 1 μl of samples were loaded on a Poros 1 R/H column (75 μm×15 cm, Dionex). […] Mass spectra (m/z 500-2,000) were acquired in the positive ITMS mode with 5 μscans accumulation, a target value of 30,000 and a maximum injection time of 100 ms. The acquired raw files were converted in MassLynx format (Waters) using an home-made program and then were deconvoluted using MaxEnt software (Waters).

[3] = target: T3, Prdx1 (Homo sapiens, UniProt Q06830); assay: Monomeric avidin pull-down and Prdx1 immunoprecipitation, identification of Prdx1 modification; type: cell-based; details: GSH-depleted HCT116, 100 μM, 4 h
T3 construct: endogenous in cells; host or cells: HCT116 (GSH-depleted with BSO)
Description: After separation by SDS-PAGE under reducing conditions and PageBlue® protein staining (Thermo scientific), bands of interest were excised, reduced with DTT, alkylated with iodoacetamide and in-gel digested with trypsin (Promega). Peptides were extracted with acetonitrile 50% in 0.2% formic acid and analyzed by Nano LC-MS/MS after partial evaporation in a speed-vac concentrator. LC-MS/MS experiments were performed on an NanoAcquity UPLC (Waters) coupled to a hybrid LTQ Orbitrap Velos mass spectrometer (Thermo Fisher Scientific) equipped with a nanoelectrospray source. Tryptic digests were loaded onto a nanoAcquity UPLC Trap column (Symmetry C18, 5 μm, 180 μm×20 mm, Waters) and washed with 0.2% formic acid at 20 μL/min for 5 min. Peptides were then eluted on a C18 reverse-phase nanoAcquity column (BEH130 C18, 1.7 μm, 75 μm×250 mm, Waters) with a linear gradient of 7-30% solvent B (H2O/CH3CN/HCOOH, 10:90:0.2, by vol.) for 85 min, 30-90% solvent B for 10 min, and 90% solvent B for 5 min, at a flow rate of 250 nL/min.
The mass spectrometer was operated in the data-dependent mode to automatically switch between MS and MS/MS acquisition. […] The exact parent mass is the ^12C isotope ion mass of the most intense isotopic pattern detected on the high resolution Orbitrap MS parallel scan and included in the MS/MS selection window. […]

[4] = HCT-116, read-out: inhibition of TrxR reductase activity, 100 μM, 4 h, BSO-pretreated HCT116
[5] = HCT-116, read-out: inhibition of TrxR reductase activity, 100 μM, first 2 h of incubation, BSO-pretreated HCT116

T2 sequence (P04406 whole entry): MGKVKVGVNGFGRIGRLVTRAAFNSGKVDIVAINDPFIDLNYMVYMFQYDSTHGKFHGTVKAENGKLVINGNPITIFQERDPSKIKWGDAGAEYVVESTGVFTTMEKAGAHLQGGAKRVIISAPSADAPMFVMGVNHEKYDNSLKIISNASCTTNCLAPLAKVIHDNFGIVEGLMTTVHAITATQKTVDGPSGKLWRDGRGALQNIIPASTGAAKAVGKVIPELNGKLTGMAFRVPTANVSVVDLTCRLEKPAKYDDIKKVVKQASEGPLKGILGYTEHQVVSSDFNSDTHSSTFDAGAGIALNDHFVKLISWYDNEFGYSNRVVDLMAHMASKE
T3 sequence (Q06830 2-199 limits assumed): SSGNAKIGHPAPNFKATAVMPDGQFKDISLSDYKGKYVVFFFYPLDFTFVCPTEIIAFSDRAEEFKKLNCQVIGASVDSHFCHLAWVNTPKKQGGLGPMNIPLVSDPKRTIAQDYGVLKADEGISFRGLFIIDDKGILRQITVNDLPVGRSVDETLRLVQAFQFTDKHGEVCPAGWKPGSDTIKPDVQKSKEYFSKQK

Compound | inhibition at 100 µM [1, 4] [%] | inhibition at 100 µM [1, 5] [%] | covalent modification of GAPDH (MS analysis) ([2]; purified GAPDH incubated with compound) | blocking of free thiol groups in GAPDH ([2]; purified GAPDH, biotin-HPDP labeling, streptavidin-HRP blot) | Prdx1 modification after in-cell bio activation [3] | modification of free thiol groups in purified GAPDH [2]
NC(=O)c1ccc(I)c([N+](=O)[O-])c1 [Iniparib, 4-iodo-3-nitrobenzamide] | ~100 | > 90 | not able to covalently modify the protein | ineffective | modifies Cys173 | 
O=C(CCCC[C@@H]1SC[C@@H]2NC(=O)N[C@@H]21)NCCNC(=O)c1ccc(I)c([N+](=O)[O-])c1 [Iniparib-biotin, 4-iodo-3-nitro-N-(2-(5-((3 aS,4S,6aR)-2-oxohexahydro-1H-thieno[3,4-d]imidazol-4-yl)pentanamido)ethyl)benzamide] | ~100 | > 90 |  |  | modifies Cys173 | did not modify free thiol groups
